Source: US20230121313A1 (priority 2019, published 2023)
Where two headings read alike, the source gives them in different places. Marks after values point to notes of the source that are not given here.

Tests used:
[1] = for QC sample long-term storage stability: human plasma QC sample at −20° C.; for QC sample bench-top stability: human plasma QC sample; for QC sample bench-top stability / Processed sample stability: room temperature; for Stock solution stability (spike solutions): ketamine/norketamine spike solutions at −20° C.; for Whole Blood Stability: room temperature and in an ice-water bath (0-4° C.)
Experimental: This example provides an LC-MS/MS method for the determination of ketamine and norketamine in sodium heparin human plasma using ketamine-d4 and norketamine-d4 as the respective internal standards (IS).
Retention time and peak area were determined by Analyst® Data Acquisition/Processing Software (Version 1.4.2). Analyte concentrations were obtained from a calibration curve constructed by plotting the peak area ratio versus the concentration using Watson LIMS (Version 7.3). Watson LIMS and Microsoft Office Excel were used for statistical calculations. When Office Excel was used the calculations were 100% audited. Concentrations were calculated using linear regression according to the following equation: […]
Selectivity is defined as the ability of a chromatographic method to measure a response from the analyte without interference from the biological matrix. This was accomplished by evaluating six individual lots of human plasma prepared as blank and at the lower limit of quantitation (LLOQ, 0.500 ng/mL).
The matrix effect is defined as the suppression or enhancement of ionization of analytes by the presence of matrix components in the biological samples. See, e.g., C. T. Viswanathan, “Quantitative Bioanalytical Methods Validation and Implementation: Best Practices for Chromatographic and Ligand Binding Assays,” Pharmaceutical Research, Vol. 24, No. 10, October 2007, p. 1969. The matrix effect was evaluated by extracting single replicates of six lots of blank human plasma and spiking each lot at the Low and High QC concentration levels (1.50 ng/mL and 375 ng/mL) post extraction. The area ratios of the six lots of post-extraction spiked plasma samples were compared to the mean area ratio obtained from three replicates of the neat solution prepared at the same concentration level in purified water.
The linearity of the method was evaluated at a linear range of 0.500/0.500-500/500 ng/mL for ketamine/norketamine in human plasma. Linear regression (with a weighting factor of 1/x2) was used to produce the best fit for the concentration-detector response relationship for ketamine and norketamine in human plasma.
The validation was conducted with a target LLOQ of 0.500 ng/mL for ketamine and norketamine in human plasma. To evaluate the sensitivity, six QC samples prepared at the LLOQ were analyzed during three individual batch runs as part of the intra-run and inter-run accuracy and precision for the method. The concentrations were calculated with the calibration curve.
The intra-run and inter-run accuracy and precision of the method were investigated at four different QC concentration levels (0.500 ng/mL (LLOQ), 1.50 ng/mL, 80.0 ng/mL, and 375 ng/mL).
Recoveries were calculated according to the following formula: […]
To assess the reinjection reproducibility, an analyte batch containing a standard curve and QC samples was reinjected after being kept at room temperature for 161.5 hours.

[2] = system: subjects with MDD at imminent risk for suicide; conditions: double-blind phase; all randomized analysis set; N=36
Description: Among 68 randomized subjects, 66 were included in the safety analysis set (defined as receiving at least one dose of study medication in the double-blind phase). […] All safety subjects (N=66) were included in the intent-to-treat (ITT) analysis set (defined as receiving at least one dose of study medication during the double-blind phase and having both the baseline and the Day 1, 4-hour postdose evaluation for the MADRS total score). Forty-nine subjects were included in the safety (FU) analysis set (defined as all subjects who have at least 1 visit during the follow up phase).

MDD/TRD subjects = conditions: 52-week safety study in MDD/TRD subjects (Berman et al., 2011); cited from earlier work
[3] = system: PCG/RSC of adult female Sprague Dawley rats; conditions: 3 hours after a single intraperitoneal injection (Jevtovic-Todorovic 2000); cited from earlier work
[4] = Pharmacokinetics of intranasal esketamine 28, 56, 84 mg in healthy subjects (Example 9); conditions: for AUClast / AUC∞ / Cmax / t1/2 / Metabolite/Parent Ratio AUClast / Metabolite/Parent Ratio AUC∞ / Metabolite/Parent Ratio Cmax: mean; for Tmax: median; for Metabolite/Parent Ratio AUClast / Metabolite/Parent Ratio AUC∞ / Metabolite/Parent Ratio Cmax: noresketamine to esketamine
Experimental: This was an open-label, single-center study. The subjects were healthy Caucasian men and women, 20 to 55 years of age, inclusive. […] The solution consisted of:
Pharmacokinetic blood samples for measurement of esketamine and noresketamine concentrations in plasma were collected from predose until up to 24 hours after each intranasal esketamine regimen on Day 1 of each period.
Blood samples (4 mL each) for determination of esketamine and noresketamine plasma concentrations were collected into the appropriate collection tube (e.g., Vacutainer®) at timepoints 0.00, 0.12, 0.20, 0.37, 0.53, 0.67, 0.83, 1.00, 1.25, 1.50, 2.00, 3.00, 4.00, 6.00, 9.00, 12.00, 18.00, and 24.00 h. The total amount of blood to be drawn for clinical laboratory tests and PK evaluations is approximately 327 mL.
Plasma samples were analyzed for esketamine and noresketamine concentrations using the validated, specific and sensitive liquid chromatography coupled to tandem mass spectrometry (LC-MS/MS) achiral method of Example 8.
Serial PK blood samples (4 mL each) were collected for a 24-hour period from each subject (Periods 1, 2, and 3).
The following key parameters of esketamine and noresketamine in plasma were calculated using noncompartmental methods and actual sampling times: Cmax, tmax, AUClast, AUC∞, t1/2,λ, and λz.

[5] = freeze (−20° C.)/thaw (ice-water bath)
[6] = freeze (−20° C.)/thaw (room temperature)
[7] = stock solutions at room temperature under white light
[8] = noresketamine in plasma after intranasal esketamine 28 mg (Treatment A)
[9] = noresketamine in plasma after intranasal esketamine 56 mg (Treatment B)
[10] = noresketamine in plasma after intranasal esketamine 84 mg (Treatment C)

NC1(c2ccccc2Cl)CCCCC1=O (stereo not shown) [Norketamine]
QC sample freeze/thaw stability [1, 5]: 3 freeze (−20° C.)/thaw (ice-water bath) cycles | QC sample freeze/thaw stability [1, 6]: 3 freeze (−20° C.)/thaw (room temperature) cycles | QC sample long-term storage stability [1]: 1552 days at −20 °C | QC sample bench-top stability [1]: 68.5 hours at room temp | Stock solution stability (spike solutions) [1]: 610 days at −20 °C for ketamine/norketamine spike solutions | Processed sample stability [1]: 146.5 hours at room temperature | Whole Blood Stability [1]: 120 minutes at room temperature and in an ice-water bath (0-4° C.) | Stock solution stability [1, 7]: 6 h | Stock solution stability ([1]; stock solutions at −20° C.): 15100 h

CN[C@]1(c2ccccc2Cl)CCCCC1=O [Esketamine 84 mg]
Withdrawn: Adverse event, % of subjects [2]: (13.9%) | Withdrawn: Adverse event, number of subjects [2]: 5 | Withdrawn: Lack of Efficacy, % of subjects [2]: (2.8%) | Withdrawn: Lack of Efficacy, number of subjects [2]: 1

OCCOCCN1CCN(C2=Nc3ccccc3Sc3ccccc32)CC1 [quetiapine]
Rate of discontinuation due to adverse events (MDD/TRD subjects): 23.7%

CNC1(c2ccccc2Cl)CCCCC1=O (racemic) [ketamine, reference compound]
QC sample freeze/thaw stability [1, 5]: 3 freeze (−20° C.)/thaw (ice-water bath) cycles | QC sample freeze/thaw stability [1, 6]: 3 freeze (−20° C.)/thaw (room temperature) cycles | QC sample long-term storage stability [1]: 1552 days at −20 °C | QC sample bench-top stability [1]: 68.5 hours at room temp | Stock solution stability (spike solutions) [1]: 610 days at −20 °C for ketamine/norketamine spike solutions | Processed sample stability [1]: 146.5 hours at room temperature | Whole Blood Stability [1]: 120 minutes at room temperature and in an ice-water bath (0-4° C.) | Stock solution stability [1, 7]: 6 h | Stock solution stability ([1]; stock solutions at −20° C.): 15100 h | ED50-value for the induction of neuronal vacuolation in the PCG/RSC [3]: 47.5 mg/kg body weight

NC1(c2ccccc2Cl)CCCCC1=O (stereo not shown) [noresketamine]
Mean ratio of noresketamine to esketamine, AUClast ([4]; 28, 56, 84 mg): 3.62 to 4.32 | Mean ratio of noresketamine to esketamine, AUC∞ ([4]; 28, 56, 84 mg): 3.80 to 4.46 | Mean ratio of noresketamine to esketamine, Cmax ([4]; 28, 56, 84 mg): 1.96 to 2.55 | Median tmax of noresketamine, range across regimens ([4]; healthy subjects, intranasal esketamine 28, 56, 84 mg): 1.25 to 1.5 h | AUC (AUClast and AUC∞) variability ([4]; noresketamine in plasma): 17.0% to 21.3 | Between-subject variability for Cmax ([4]; noresketamine in plasma): 25.8% to 33.7 | AUClast [4, 8]: 454 ng·h/mL | AUC∞ [4, 8]: 508 ng·h/mL | Cmax [4, 8]: 92.8 ng/mL | t1/2 [4, 8]: 7.74 h | Tmax [4, 8]: 1.25 h | AUClast [4, 9]: 851 ng·h/mL | AUC∞ [4, 9]: 924^c h*ng/mL | Cmax [4, 9]: 154 ng/mL | t1/2 [4, 9]: 7.71^c h | Tmax [4, 9]: 1.50 h | AUClast [4, 10]: 1287 ng·h/mL | AUC∞ [4, 10]: 1392^b h*ng/mL | Cmax [4, 10]: 241 ng/mL | t1/2 [4, 10]: 7.48^b h | Tmax [4, 10]: 1.50 h | Metabolite/Parent Ratio AUClast ([4]; esketamine 28 mg (Treatment A)): 3.62 | Metabolite/Parent Ratio AUC∞ ([4]; esketamine 28 mg (Treatment A)): 3.80^b | Metabolite/Parent Ratio Cmax ([4]; esketamine 28 mg (Treatment A)): 1.96 | Metabolite/Parent Ratio AUClast ([4]; esketamine 56 mg (Treatment B)): 4.07 | Metabolite/Parent Ratio AUC∞ ([4]; esketamine 56 mg (Treatment B)): 4.22^b | Metabolite/Parent Ratio Cmax ([4]; esketamine 56 mg (Treatment B)): 2.28 | Metabolite/Parent Ratio AUClast ([4]; esketamine 84 mg (Treatment C)): 4.32 | Metabolite/Parent Ratio AUC∞ ([4]; esketamine 84 mg (Treatment C)): 4.46^d | Metabolite/Parent Ratio Cmax ([4]; esketamine 84 mg (Treatment C)): 2.55 | Mean t1/2, range across regimens ([4]; noresketamine, esketamine 28, 56, 84 mg): 7.48 to 7.74 h
